Where “and” joins values, the source holds several entries; their conditions need not be identical. Equal entries are not always repeated. Where two headings read alike, the source gives them in different places.
Key:
Botrytis cinerea [1] = experiment: PDA plate inhibition, caprylic acid and organic acids (Example 13); format: cell-based
Experimental: (§1) Potato dextrose agar (PDA) plates, +/−amendments, were inoculated with selected pathogens. There were several replicate plates used per treatment group (per pathogen tested). After incubation of plates at room temperature, fungal growth was measured.

White mold [2] = experiment: as above; format: cell-based
Experimental: as §1

Botrytis cinerea [3] = tested on: Botrytis cinerea
White mold [4] = format: cell-based
Late blight = format: cell-based
Septoria = format: cell-based

CCNCC.O=C(O)c1ccccc1O [0.010% diethylamine salicylate, diethylamine salicylate]
Inhibition (%) of Botrytis cinerea (Botrytis cinerea [1]): 0%
Inhibition (%) of white mold (White mold [2]): 7%

O=C(O)C(O)C(O)C(=O)O (centres unmarked) [0.75% tartaric acid, tartaric acid]
Infected berries (% of total) (Botrytis cinerea [3]; Day 2 after treatment): 31%
Infected berries (% of total) (Botrytis cinerea [3]; Day 3 after treatment): 58%

O=C(O)CO [0.0175% glycolic acid, glycolic acid]
Measurement of fungal growth, based on control plate (100%) (White mold [4]): 127% and 108%
Measurement of fungal growth, based on control plate (100%) (Late blight; Day 2 after inoculum): 79%
Measurement of fungal growth, based on control plate (100%) (Late blight; Day 3 after inoculum): 104%
Measurement of fungal growth, based on control plate (100%) (Septoria): 80% and 90%

Source: patent publication US7820594B2 (priority 2003, dated 2010)
